# Legend:
# deoxycytidine deaminase = test system: deoxycytidine deaminase; set-up: method as in PMID 16807468; conditions: cited from earlier work
# [1] = test system: patients with solid tumors; experiment: Adverse events graded by CTCAE version 3.0, relatedness by investigator; format: in vivo, human; conditions: for Patients discontinuing treatment with the drug because of adverse events: all cohorts
# Method: Cohort enrollment could be expanded to ensure that at least 6 evaluable patients were enrolled or in the event of unresolved safety, pharmacokinetic, or other concerns. The overall sample size could be further increased if additional dose cohorts were considered justified based on the results from the dose-escalation portion of the study. For continuous endpoints, the mean, standard error or standard deviation (SD); median; 25th and 75th percentiles; and minimum and maximum were calculated. For discrete data, the frequency and percent distributions were calculated. No formal comparisons between cohorts were performed. The data were analyzed using SAS software version 8.2 (SAS Institute, Cary, NC). […] The safety analysis set included all patients who received at least 1 dose of study therapy.
# CYP1A2 = conditions: cited from earlier work
# [2] = test system: patients with advanced NSCLC; conditions: cited from earlier work
# clinical = conditions: for Tmax: Median tmax
# Method: Plasma concentrations of motesanib were analyzed using a validated liquid chromatography/tandem mass spectrometry (LC-MS/MS) method with a lower limit of quantitation (LLOQ) of 0.2 ng/mL (Cedra Corp., Austin, TX).
# Pharmacokinetic parameter estimates were calculated according to standard noncompartmental methods using WinNonlin software (version 5.1.1; Pharsight Corporation, Mountain View, CA) and summarized by dose level. […] For the BID cohort, AUC0—24 values for motesanib were determined by 2 × AUC0—12. The terminal elimination rate constant (λZ) was determined by linear regression of the natural logarithms of plasma concentrations versus time during the terminal phase; the corresponding t1/2 was calculated.
# The GLSM were calculated by first obtaining the least squares means for the log-transformed Cmax values (logCmax) and AUC0—24 values (logAUC0—24) for weeks 3 and 2, and then converting these values back to the original scale. The ratio and 90% confidence interval (CI) of GLSM was calculated by first estimating the difference (and 90% CI) in the least squares means between weeks 3 and 2 for logCmax and logAUC0—24, and then converting the numbers back to their original scale.
# [3] = test system: cytochrome P450 (CYP) 3A4; conditions: cited from earlier work
# [4] = 56 patients who received erlotinib
SMILES,Metabolism by deoxycytidine deaminase (deoxycytidine deaminase),Patients discontinuing treatment with the drug because of adverse events [1],Metabolism by CYP1A2 (CYP1A2),"Progression-free survival ([2]; phase 3, advanced NSCLC after failed first-line therapy)","Response rate ([2]; phase 3, P = 0.006)",Overall survival ([2]; phase 3),"Mean t1/2, z (clinical; human, in vivo, 100 mg)","half-life (clinical; human, in vivo, 100 mg, Mean t1/2, z)","Tmax (clinical; human, in vivo, 100 mg)","Median tmax (clinical; human, in vivo, 150 mg)","Tmax (clinical; human, in vivo, 150 mg)","Overall median tmax (clinical; week 3, 100 mg erlotinib QD with gemcitabine and motesanib)",Metabolism by CYP3A4 [3],"Erlotinib-related anorexia [1, 4]","Erlotinib-related diarrhea [1, 4]","Erlotinib-related fatigue [1, 4]","Erlotinib-related nausea [1, 4]","Erlotinib-related rash [1, 4]","Erlotinib-related vomiting [1, 4]","Incidence of erlotinib-related skin rash ([1]; present study, all patients)"
"Nc1ccn([C@@H]2O[C@H](CO)[C@@H](O)C2(F)F)c(=O)n1 [gemcitabine, reference compound]",primarily metabolized,8 n,–,–,–,–,–,–,–,–,–,–,–,–,–,–,–,–,–,–
C#Cc1cccc(Nc2ncnc3cc(OCCOC)c(OCCOC)cc23)c1 [erlotinib],–,7 n,metabolized at least in part,1.7 mo,6.2%,9.2 mo,12 to 19 h,17 to 33 h,2 to 6 h,2 to 4 h,1 to 3 h,2 h,metabolized at least in part,16 n,35 n,14 n,23 n,42 n,15 n,75%

# — article PMC3161034 (BMC Cancer, 2011)
